# Assay results: US5175166A, “Muscarinic agonists” (The University of Toledo, priority 1991, dated 1992)
# Structures can show the parent of a compound that is named as a salt.
# Tests used:
# [1] = biological target: muscarinic receptors; assay: Binding, competition with 3H-oxotremorine M (3H-OXO-M), agonist binding (rat brain membranes); details: 3 nM 3H-oxotremorine M, 15 minutes room temperature, mean of three experiments
# Experimental: (§1) Other binding was determined indirectly by the ability of compounds to compete with 1 nM ^3 H-pirenzepine (^3 H--PZ), or 3 nM ^3 H-oxotremorine M (^3 H--OXO--M) in a suspension of brain membranes. Each sample contained approximately 0.1 mg/ml protein for ^3 H--OXO--M in 20 mM Tris-Cl buffer with 1 mM MnCl2 and varying concentrations of compound in a final volume of […]. Samples were incubated 1 hr. for ^3 H--PZ, and 15 minutes for ^3 H--OXO--M at room temperature and then filtered through glass fiber filters using a Brandell cell harvester adapted for receptor binding work and the filters were washed twice with two 5-ml portions of cold buffer. Nonspecific binding was evaluated by the inclusion of excess atropine in a separate set of samples. IC50 values were determined from Hill plots of the inhibition data and are reported as means of three independent experiments each performed in triplicate.
# (§2) Rats were killed by cervical dislocation and their brains rapidly removed. Tissue was homogenized in 9 vol. (w/v) of a 40 mM sodium-potassium phosphate buffer solution (pH 7.4) buffer solution with a Brinkman Polytron homogenizer five times for 10 sec at 5 sec intervals. The crude homogenate was subjected to centrifugation for 10 min at 1000×g, the supernatant saved, and the pellet resuspended in 9 vol. (w/v) of homogenization buffer and spun for another 10 min at 1000×g. The supernatants were combined and spun again for 30 min at 17,500×g. The resultant pellet was resuspended by homogenization in a Teflon-glass homogenizer in 10 vol. of buffer, and washed by centrifugation at 17,500×g for 30 min. The final pellet was resuspended by hand homogenization with a Teflon and glass homogenizer in buffer. The suspension was then divided into several portions and stored at -70° C.
# (§3) In the table, ^3 H-QNB indicates general binding to muscarinic receptors and the lower the number, the higher is the potency. ^3 H-PZ indicates binding to muscarinic receptors and a preference for M1 receptors involved in memory and cognition. The lower the number for ^3 H-PZ the higher the potencies; the same is true for ^3 H--OXO--M which indicates agonist binding. In general, the higher the ratio of the value for ^3 H--PZ to the value for ^3 H--OXO--M the better is the agonistic characteristic.
# [2] = tested on: M1 receptors; assay: Phosphoinositide turnover in the hippocampus (brain slices); assay type: cell-based, Male Long Evans rats; details: Rattus norvegicus, read-out: Phosphoinositide turnover in the hippocampus, maximal % response above baseline; for activation at 100 µM / activation at 50 µM: hippocampus
# Experimental: The slices were gently agitated at 37° C. in a shaking water bath for 45 min with three changes to buffer. […] The samples were mixed with vigorous shaking and spun at 1000×g for 10 min to separate organic and aqueous phases. […] Briefly, […] anion-exchange SEP-PAK's (Waters Associates) cartridges were converted into the formate form by washing first with 10 ml of a solution of 1.0 M-ammonium formate in 0.1 M-formic acid, followed by 20 ml of distilled water. The sample loading and solution delivery were performed by using disposable plastic syringes; an approximate flow rate of 10-15 ml/min was maintained. […] The entire amount was loaded on to the […] anion-exchange SEP-PAK cartridge. […] Phosphoinositide turnover in the hippocampus indicates a biological response in an area of the brain where M1 receptors predominate. Higher numbers indicate greater efficacy and selectivity at M1 receptors.
# [3] = tested on: muscarinic receptors linked to M1, M3, M5 receptors; assay: PI Cortex: phosphoinositide turnover in the cortex (brain slices); assay type: cell-based, Male Long Evans rats; details: Rattus norvegicus, read-out: PI Cortex, maximal % response above baseline
# Experimental: Male Long Evans rats (200-300 g) were decapitated and their brains were rapidly removed and dissected according to the method of Glowinski and Iversen. […] The slices were gently agitated at 37° C. in a shaking water bath for 45 min with three changes to buffer.
# Immediately before each experiment, [^3 H] inositol was purified by drying under Nz and passing a portion through a 1-ml column of Dowex AGl-X8 (formate form) to remove contaminants. […] Aliquots (25 microliters) of tissue slices were pipetted into flat-bottomed Beckman-biovials (5-ml capacity) containing 0.3 mM [^3 H]-inositol (15 Ci/mmol) and 10 mM LiCl in 245 microliters of buffer. The vials were then gassed, capped and incubated at 37° C. in a shaking water bath for 30 min. At the end of 30 min, agonist (or buffer for the determination of basal levels) was then added (30 microliters), and the incubation continued for an additional 45 min. The 45 -min incubation period was selected on the basis of the time course of labeled inositol phosphates ([^3 H]-IP's) accumulation under these conditions. The incubations were stopped by the addition of 0.94 ml of CHCl3 /MeOH (1:2, V/V) followed by 0.31 ml of CHCl3 and 0.31 ml of H2 O. The samples were mixed with vigorous shaking and spun at 1000×g for 10 min to separate organic and aqueous phases. Aliquots (750 microliter) of the upper aqueous phase were removed for determination of [^3 H]-IP's. In some cases 200 ml aliquots of the organic phase were removed, dried overnight and counted in 5 ml of scintillant (Amersham) for determination of [^3 H]-inositol incorporation into phospholipids.
# Briefly, ACCELL QMA anion-exchange SEP-PAK's (Waters Associates) cartridges were converted into the formate form by washing first with 10 ml of a solution of 1.0 M-ammonium formate in 0.1 M-formic acid, followed by 20 ml of distilled water. The sample loading and solution delivery were performed by using disposable plastic syringes; an approximate flow rate of 10-15 ml/min was maintained. Total [^3 H]-IP's were determined by the "batch" method in which 750 microliter aliquots of the aqueous phase obtained as described above was diluted to 3 ml with distilled water. The entire amount was loaded on to the ACCELL QMA anion-exchange SEP-PAK cartridge. The cartridge was then washed with 10 ml of distilled water, followed by 5 mM-disodium tetraborate. Radiolabeled IP's were then eluted with 1 ml of 0.6 M-ammonium formate/0.06 M formic acid/5 mM-disodium tetraborate (pH 4.75) and 0.50 ml of this eluate was counted in 5 ml of aqueous counting scintillant.
# [4] = biological target: muscarinic receptors; assay: Binding to muscarinic receptors, competition with [3H]-QNB (rat brain membranes); details: for IC50: 50 pM [3H]-QNB, rat brain membranes, pH 7.4, 2.0 hr room temperature, mean of three experiments; for binding to muscarinic receptors (in words): qualitative statement
# [5] = biological target: T1, M1 receptors (Rattus norvegicus, UniProt P08482); assay: Binding, competition with 3H-pirenzepine (3H-PZ) (rat brain membranes); details: 1 nM 3H-pirenzepine, 1 hr room temperature, mean of three experiments
# T1 sequence (P08482 1-460): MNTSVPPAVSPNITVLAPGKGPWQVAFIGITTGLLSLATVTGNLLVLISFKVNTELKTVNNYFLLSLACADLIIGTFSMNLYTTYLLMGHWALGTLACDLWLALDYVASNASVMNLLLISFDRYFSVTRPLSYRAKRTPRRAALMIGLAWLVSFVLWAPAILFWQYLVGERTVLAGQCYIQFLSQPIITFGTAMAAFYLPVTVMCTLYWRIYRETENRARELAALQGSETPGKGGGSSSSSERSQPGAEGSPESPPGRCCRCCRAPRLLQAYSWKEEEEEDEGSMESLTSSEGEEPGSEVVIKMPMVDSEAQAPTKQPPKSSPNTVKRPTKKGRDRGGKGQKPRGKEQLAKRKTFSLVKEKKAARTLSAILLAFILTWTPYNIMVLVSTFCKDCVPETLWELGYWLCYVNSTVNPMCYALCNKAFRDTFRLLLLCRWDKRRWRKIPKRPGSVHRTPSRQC
# Experimental: as §1, §2, §3
# [6] = tested on: muscarinic receptors; assay: Phosphoinositide (PI) response / inositol phosphate formation in brain slices (region not stated); assay type: cell-based, Male Long Evans rats; details: qualitative statement
# Experimental: The slices were gently agitated at 37° C. in a shaking water bath for 45 min with three changes to buffer.
# The sample loading and solution delivery were performed by using disposable plastic syringes; an approximate flow rate of 10-15 ml/min was maintained.
IC50 [1] [µM],IC50 [4] [µM],IC50 [5] [µM],Structure (SMILES),activation at 1000 µM [2] [%],activation at 100 µM [3] [%],activation at 100 µM [2] [%],PI response (in words) [6],binding to muscarinic receptors (in words) [4],activation at 1000 µM ([3]; dose 1 mM) [%],activation at 50 µM [2] [%]
0.16,1.9,,"CCOC(=O)C1CN=CNC1 (centres unmarked) [Example 2, 1,4,5,6-Tetrahydro-5-ethoxycarbonylpyrimidine Hydrochloride]",,150,,,,,
1.08,2.1,1.33,"CCCOC(=O)C1CN=CNC1 (centres unmarked) [Example 3, n-Propyl 1,4,5,6-Tetrahydropyrimidine-5-carboxylate Hydrochloride]",,7.1,,,,,
1.76,3.5,,"CC(C)OC(=O)C1CN=CNC1 (centres unmarked) [Example 4, Isopropyl 1,4,5,6-Tetrahydropyrimidine-5-carboxylate Hydrochloride]",,7.2,,,,,
1.09,~1,1.27,"O=C(OCc1ccccc1)C1CN=CNC1 (centres unmarked) [Example 5, Benzyl 1,4,5,6-Tetrahydropyrimidine-5-carboxylate Hydrochloride]",,3.5,,,,,
,1.9,,"C#CCOC(=O)C1CN=CNC1 (centres unmarked) [Example 6, Propynyl 1,4,5,6-Tetrahydropyrimidine-5-carboxylate Hydrochloride]",,230,,,,,
0.026,2,,"Cc1noc(C2CN=CNC2)n1 (centres unmarked) [Example 9, 1,4,5,6-Tetrahydro-5-(3-methyl-1,2,4-oxadiazol-5-yl)pyrimidine trifluoroacetate]",,700,704,,,,
2.4,25.1,15,"COC(=O)C1=CNCN(C)C1 [Example 11, 1-Methyl-5-methoxycarbonyl-1,2,3,6-tetrahydropyrimidine HCl]",,,,,,182,
0.114,7.3,0.77,"COC(=O)C1CCC(N)=NC1.Cl (centres unmarked) [Example 14, 2-Amino-5-methoxycarbonyl-3,4,5,6-tetrahydropyridine HCl]",,265,,unexpectedly superior PI response,,,
> 10,83,13,"COC(=O)C1CCCN=C1N (centres unmarked) [Example 15, 2-amino-3-methoxycarbonyl-3,4,5,6-tetrahydropyridine HCl]",,-5.5,,,,,
,130,,"COC(=O)C1CCN=C(N)C1 (centres unmarked) [Example 16, 2-Amino-4-methoxycarbonyl-3,4,5,6-tetrahydropyridine HCL]",,9,,,,,
> 10,130,> 10,"COC(=O)C1CCCC(N)=N1 (centres unmarked) [Example 17, 2-Amino-6-methoxycarbonyl-3,4,5,6-tetrahydropyridine HCL]",,5.9,,,,,

Structure (SMILES),IC50 [1] [µM],IC50 [4] [µM],IC50 [5] [µM],activation at 1000 µM [2] [%],activation at 100 µM [3] [%],activation at 100 µM [2] [%],PI response (in words) [6],binding to muscarinic receptors (in words) [4],activation at 1000 µM ([3]; dose 1 mM) [%],activation at 50 µM [2] [%]
"COC(=O)C1CN=CNC1 (centres unmarked) [Example 1, 1,4,5,6-Tetrahydro-5-methoxycarbonylpyrimidine Hydrobromide]",0.09,,,237,131,,,,,
"CC(=O)OC1CN=CNC1.Cl (centres unmarked) [Example 10, 5-Acetoxy-1,4,5,6-tetrahydropyrimidine HCl]",0.64,31.6,10,,,70,efficacious with respect to the PI response,acceptable binding data,,
"CC(=O)OC1CN=C(C(F)(F)F)NC1.Cl (centres unmarked) [Example 18, 5-Acetoxy-2-trifluoromethyl-1,4,5,6-tetrahydropyrimidine HCl]",> 10,8.7,> 10,,,,no PI response,,,0
"CC(=O)OC1CN=C(C)NC1 (centres unmarked) [Example 19, 2-methyl-5-acetoxy-1,4,5,6-tetrahydropyrimidine]",> 10,100,> 10,,,,virtually no PI response,extremely poor binding to muscarinic receptors,,0
